Results: PubChem BioAssay AID1963842 (Molecular Pharmacology Branch, DTP, NCI, 2024)

System: 677734-321-R-J1-PDC complex spheroid viability
Test: Anticancer human tumor 677734-321-R-J1-PDC patient-derived soft tissue sarcoma cell line growth inhibition [POLQ]
Conditions: for IC50: curve of first compound; for viability, T/C: stronger effect = lower value
In short: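 Growth inhibition in 3D: complex spheroids (tumor PDC, HUVEC, MSC) treated with POLQ inhibitor combinations; where Cmax unknown, highest tested concentration 10 microM, except SN-38 at 1 microM.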

[1] = second compound 0.0316 µM, first compound 0.0316 µM
[2] = second compound 0.0316 µM, first compound 0.1 µM
[3] = second compound 0.0316 µM, first compound 0.316 µM
[4] = second compound 0.0316 µM, first compound 1 µM
[5] = second compound 0.0316 µM, first compound 3.16 µM
[6] = second compound 0.0316 µM, first compound 10 µM
[7] = second compound 0.1 µM, first compound 0.0316 µM
[8] = second compound 0.1 µM, first compound 0.1 µM
[9] = second compound 0.1 µM, first compound 0.316 µM
[10] = second compound 0.1 µM, first compound 1 µM
[11] = second compound 0.1 µM, first compound 3.16 µM
[12] = second compound 0.1 µM, first compound 10 µM
[13] = second compound 0.316 µM, first compound 0.0316 µM
[14] = second compound 0.316 µM, first compound 0.1 µM
[15] = second compound 0.316 µM, first compound 0.316 µM
[16] = second compound 0.316 µM, first compound 1 µM
[17] = second compound 0.316 µM, first compound 3.16 µM
[18] = second compound 0.316 µM, first compound 10 µM
[19] = second compound 1 µM, first compound 0.0316 µM
[20] = second compound 1 µM, first compound 0.1 µM
[21] = second compound 1 µM, first compound 0.316 µM
[22] = second compound 1 µM, first compound 1 µM
[23] = second compound 1 µM, first compound 3.16 µM
[24] = second compound 1 µM, first compound 10 µM
[25] = second compound 3.16 µM, first compound 0.0316 µM
[26] = second compound 3.16 µM, first compound 0.1 µM
[27] = second compound 3.16 µM, first compound 0.316 µM
[28] = second compound 3.16 µM, first compound 1 µM
[29] = second compound 3.16 µM, first compound 3.16 µM
[30] = second compound 3.16 µM, first compound 10 µM
[31] = second compound 10 µM, first compound 0.0316 µM
[32] = second compound 10 µM, first compound 0.1 µM
[33] = second compound 10 µM, first compound 0.316 µM
[34] = second compound 10 µM, first compound 1 µM
[35] = second compound 10 µM, first compound 3.16 µM
[36] = second compound 10 µM, first compound 10 µM
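Further: spheroids exposed to compounds for one week.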
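Wherever viability, T/C is given: 100% = vehicle DMSO treated spheroids.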

Structure (SMILES): COc1cccc2c1C(=O)c1c(O)c3c(c(O)c1C2=O)CC(O)(C(=O)CO)CC3OC1CC(N)C(O)C(C)O1 (stereo unspecified) + Cc1cccc(N(C)C(=O)C2C(O)CCN2c2nc(C)cc(C(F)(F)F)c2C#N)c1
- IC50 (second compound 0.0316 µM): 142 nM
- IC50 (second compound 0.1 µM): 123 nM
- IC50 (second compound 0.316 µM): 115 nM
- IC50 (second compound 1 µM): 83.6 nM
- IC50 (second compound 3.16 µM): 83.7 nM
- IC50 (second compound 10 µM): 79.5 nM
- viability, T/C [1]: 73.8%
- viability, T/C [2]: 68.2%
- viability, T/C [3]: 8.09%
- viability, T/C [4]: 0.74%
- viability, T/C [5]: 1.88%
- viability, T/C [6]: 3.67%
- viability, T/C [7]: 77.1%
- viability, T/C [8]: 59.3%
- viability, T/C [9]: 7.54%
- viability, T/C [10]: 0.78%
- viability, T/C [11]: 3.07%
- viability, T/C [12]: 5.78%
- viability, T/C [13]: 89.2%
- viability, T/C [14]: 55.7%
- viability, T/C [15]: 9.71%
- viability, T/C [16]: 0.66%
- viability, T/C [17]: 2.56%
- viability, T/C [18]: 5.49%
- viability, T/C [19]: 102%
- viability, T/C [20]: 40.4%
- viability, T/C [21]: 7.53%
- viability, T/C [22]: 0.6%
- viability, T/C [23]: 2.63%
- viability, T/C [24]: 4.09%
- viability, T/C [25]: 99.3%
- viability, T/C [26]: 41%
- viability, T/C [27]: 6.13%
- viability, T/C [28]: 0.63%
- viability, T/C [29]: 3.14%
- viability, T/C [30]: 4.04%
- viability, T/C [31]: 94%
- viability, T/C [32]: 39%
- viability, T/C [33]: 5.5%
- viability, T/C [34]: 1.83%
- viability, T/C [35]: 3.46%
- viability, T/C [36]: 3.24%

Structure (SMILES): COc1cc2cc(C(=O)CCC(=O)O)sc2cc1OC + Cc1cccc(N(C)C(=O)C2C(O)CCN2c2nc(C)cc(C(F)(F)F)c2C#N)c1
- IC50 (second compound 0.0316 µM): > 10000 nM
- IC50 (second compound 0.1 µM): > 10000 nM
- IC50 (second compound 0.316 µM): > 10000 nM
- IC50 (second compound 1 µM): > 10000 nM
- IC50 (second compound 3.16 µM): > 10000 nM
- IC50 (second compound 10 µM): > 10000 nM
- viability, T/C [1]: 104%
- viability, T/C [2]: 87.6%
- viability, T/C [3]: 97.2%
- viability, T/C [4]: 101%
- viability, T/C [5]: 110%
- viability, T/C [6]: 92.4%
- viability, T/C [7]: 92.8%
- viability, T/C [8]: 87%
- viability, T/C [9]: 92%
- viability, T/C [10]: 107%
- viability, T/C [11]: 103%
- viability, T/C [12]: 86%
- viability, T/C [13]: 115%
- viability, T/C [14]: 94.8%
- viability, T/C [15]: 89.6%
- viability, T/C [16]: 87.8%
- viability, T/C [17]: 101%
- viability, T/C [18]: 74.5%
- viability, T/C [19]: 86.4%
- viability, T/C [20]: 77.4%
- viability, T/C [21]: 89.2%
- viability, T/C [22]: 99.7%
- viability, T/C [23]: 81.3%
- viability, T/C [24]: 70.7%
- viability, T/C [25]: 96.2%
- viability, T/C [26]: 87.1%
- viability, T/C [27]: 84.4%
- viability, T/C [28]: 102%
- viability, T/C [29]: 83.1%
- viability, T/C [30]: 82.3%
- viability, T/C [31]: 77.1%
- viability, T/C [32]: 91.8%
- viability, T/C [33]: 77.4%
- viability, T/C [34]: 79.4%
- viability, T/C [35]: 88.7%
- viability, T/C [36]: 85.8%

Structure (SMILES): Cn1ncnc1[C@H]1c2n[nH]c(=O)c3cc(F)cc(c23)N[C@@H]1c1ccc(F)cc1 + COC1C(OC(N)=O)C(O)C(Oc2ccc3c(O)c(NC(=O)c4ccc(O)c(CC=C(C)C)c4)c(=O)oc3c2C)OC1(C)C
- IC50 (second compound 0.0316 µM): > 100 nM
- IC50 (second compound 0.1 µM): > 100 nM
- IC50 (second compound 0.316 µM): > 100 nM
- IC50 (second compound 1 µM): > 100 nM
- IC50 (second compound 3.16 µM): > 100 nM
- IC50 (second compound 10 µM): > 100 nM
- viability, T/C (second compound 0.0316 µM, first compound 0.000316 µM): 101%
- viability, T/C (second compound 0.0316 µM, first compound 0.001 µM): 103%
- viability, T/C (second compound 0.0316 µM, first compound 0.00316 µM): 99.7%
- viability, T/C (second compound 0.0316 µM, first compound 0.01 µM): 101%
- viability, T/C [1]: 98.8%
- viability, T/C [2]: 85.7%
- viability, T/C (second compound 0.1 µM, first compound 0.000316 µM): 97.6%
- viability, T/C (second compound 0.1 µM, first compound 0.001 µM): 101%
- viability, T/C (second compound 0.1 µM, first compound 0.00316 µM): 106%
- viability, T/C (second compound 0.1 µM, first compound 0.01 µM): 101%
- viability, T/C [7]: 98.5%
- viability, T/C [8]: 95.2%
- viability, T/C (second compound 0.316 µM, first compound 0.000316 µM): 106%
- viability, T/C (second compound 0.316 µM, first compound 0.001 µM): 97.8%
- viability, T/C (second compound 0.316 µM, first compound 0.00316 µM): 98.5%
- viability, T/C (second compound 0.316 µM, first compound 0.01 µM): 104%
- viability, T/C [13]: 97.6%
- viability, T/C [14]: 93.4%
- viability, T/C (second compound 1 µM, first compound 0.000316 µM): 109%
- viability, T/C (second compound 1 µM, first compound 0.001 µM): 102%
- viability, T/C (second compound 1 µM, first compound 0.00316 µM): 103%
- viability, T/C (second compound 1 µM, first compound 0.01 µM): 104%
- viability, T/C [19]: 96.3%
- viability, T/C [20]: 92.5%
- viability, T/C (second compound 3.16 µM, first compound 0.000316 µM): 108%
- viability, T/C (second compound 3.16 µM, first compound 0.001 µM): 94.7%
- viability, T/C (second compound 3.16 µM, first compound 0.00316 µM): 103%
- viability, T/C (second compound 3.16 µM, first compound 0.01 µM): 100%
- viability, T/C [25]: 106%
- viability, T/C [26]: 94.4%
- viability, T/C (second compound 10 µM, first compound 0.000316 µM): 103%
- viability, T/C (second compound 10 µM, first compound 0.001 µM): 100%
- viability, T/C (second compound 10 µM, first compound 0.00316 µM): 106%
- viability, T/C (second compound 10 µM, first compound 0.01 µM): 103%
- viability, T/C [31]: 99.4%
- viability, T/C [32]: 93.3%
